This note sets out measurements from US20170049842A1, “FOOD ADDITIVE FOR PRODUCING FOOD FOR PREVENTING CRANIAL NERVE DISEASE AND/OR IMPROVING BRAIN FUNCTION” (FUJI OIL HOLDINGS INC., priority 2014, published 2017).

Series [1] has as its system Caco-2 cell monolayers.
Method: (§1) The measurement of permeability coefficient, which was an index of absorbability in the intestinal tract, of ARPs was performed as follows.
(§2) Caco-2 cells were seeded in Cell culture insert at 4.0×10^5 cells/mL, and cultured for 3 days in an intestinal epithelial differentiation promoting medium. Caco-2 cell monolayers were cut and set to Ussing Chamber. Hanks' Balanced Salt Solution (HBSS) (apical membrane side: pH 6.0, basolateral membrane side: pH 7.4) was added in each Chamber. After 15 minutes preliminary heat retention (37° C., 95% O2/5% CO2 mixture gas), each ARPs aqueous solution (10 mM) was added to apical membrane side. Samples were recovered from the basolateral membrane side every 15 minutes (total 60 minutes). The recovered sample was subjected to ESI-TOF-MS (Electro Spray Ionization-Time of Flight-Mass Spectrometry) analysis to determine permeated peptide amount. Permeability coefficient (Papp) was calculated according to the following formula.
(§3) C0: concentration of added peptide (mmol/L)
(§4) dC/dt: Permeated amount of peptide per time (mmol/L·sec)
(§5) Concentration of peptide, which transitioned to the basolateral membrane side in each time, was calculated based on the area from reference standard. In addition, it was confirmed that they were not degraded to amino acids.
(§6) Permeated peptide amount per time was calculated and permeability coefficient (Papp) was calculated according to the above formula.
A further series in a line: in vitro. To be noted: human, Caco-2.
Series [2] in a line: Permeability coefficient (Papp) across Caco-2 cell monolayers in Ussing Chamber. To be noted: Caco-2; for Papp A→B at 60 min, 10 mM: human.
Method: as §1, §2, §3, §4, §5, §6
In series [3] the test system is Caco-2 cell monolayers. The series is described as above. To be noted: compared with the other ARPs.
Method: as §1, §2, §3, §4, §5, §6

Molecules are shown by their SMILES. Where two headings read alike, the source gives them in different places. Peptide text beside a SMILES is read from it.

Method for in vitro: as §1, §2, §3, §4, §5, §6

For the compound `CC(C)C[C@H](NC(=O)[C@@H](N)Cc1ccc(O)cc1)C(=O)O` [B, Tyr-Leu] (H-Tyr-Leu-OH; N-terminus and C-terminus assumed), in the series with Caco-2 cell monolayers [1], the “permeability coefficient / permeation efficiency in mesenteric model cell, in words” value is given as “relatively higher permeability coefficient than the other ARPs”. This compound came in with a Papp A→B at 60 min, 10 mM in the series “in vitro” of 0.596 ± 0.198 ×10⁻⁶ cm/s.
With `N[C@@H](Cc1ccccc1)C(=O)N[C@@H](Cc1ccc(O)cc1)C(=O)O` [G, Phe-Tyr] (H-Phe-Tyr-OH; N-terminus and C-terminus assumed), the Papp A→B at 60 min, 10 mM in series [2] stood at 0.006 ± 0.0001 ×10⁻⁶ cm/s.
Compound `NC(=O)C[C@H](NC(=O)[C@@H](N)Cc1ccc(O)cc1)C(=O)O` [F, Tyr-Asn] (H-Tyr-Asn-OH; N-terminus and C-terminus assumed) registered a Papp A→B in series [2] of 0.044 ± 0.009 ×10⁻⁶ cm/s.
Regarding `N=C(N)NCCC[C@H](NC(=O)[C@@H](N)Cc1ccc(O)cc1)C(=O)O` [Peptide C, Tyr-Arg], the Papp A→B at 60 min, 10 mM in series [2] is 0.05 ± 0.011 ×10⁻⁶ cm/s.
`N[C@@H](Cc1ccc(O)cc1)C(=O)N[C@@H](CO)C(=O)O` [D, Tyr-Ser] (H-Tyr-Ser-OH; N-terminus and C-terminus assumed) registered a Papp A→B in series [2] of 0.248 ± 0.088 ×10⁻⁶ cm/s. In the series with Caco-2 cell monolayers [3], the “permeability coefficient / permeation efficiency in mesenteric model cell, in words” value is on record as “relatively higher permeability coefficient than the other ARPs”.
The like results for `N[C@@H](Cc1ccc(O)cc1)C(=O)N1CCC[C@H]1C(=O)O` [E, Tyr-Pro] (H-Tyr-Pro-OH; N-terminus and C-terminus assumed) were, in that order, 0.885 ± 0.215 ×10⁻⁶ cm/s and “relatively high permeation efficiency”.
On to `CC[C@H](C)[C@H](N)C(=O)N[C@@H](Cc1ccc(O)cc1)C(=O)O` [H, Ile-Tyr] (H-Ile-Tyr-OH; N-terminus and C-terminus assumed), for which the Papp A→B in series [2] was found to be 2.92 ± 0.265 ×10⁻⁶ cm/s. Moreover, the “permeability coefficient / permeation efficiency in mesenteric model cell, in words” value with Caco-2 cell monolayers [3] is recorded as “relatively high permeation efficiency”.
The matching figures for `N[C@@H](CO)C(=O)N[C@@H](Cc1ccc(O)cc1)C(=O)O` [A, Ser-Tyr] (H-Ser-Tyr-OH; N-terminus and C-terminus assumed): 0.72 ± 0.272 ×10⁻⁶ cm/s and “relatively high permeation efficiency”.
